Patent US20080293674A1, “Azinyl Imidazoazine and Azinyl Carboxamide” (priority 2004, published 2008)
Like-named read-outs stand apart in the source and are kept apart here.

Experiments:
Aphis gossypii = Aphis gossypii test (cotton leaf immersion); type: in vivo; details: 144 h, after 6 days at a concentration of 100 ppm, cotton leaves (Gossypium hirsutum), read-out: death rate
Method: After the desired time the death rate was determined in %, where 100% means that all aphids were killed; 0% means that no aphids were killed

Myzus persicae = experiment: Myzus test (spray treatment); type: in vivo; details: 120 h, after 5 days at a concentration of 500 g/ha, read-out: death rate
Method: After the desired time the death rate was determined in %, where 100% means that all aphids were killed; 0% means that no aphids were killed.

[1] = China cabbage leaves (Brassica pekinensis)

SMILES | pest or weed control at 100 ppm (Aphis gossypii) | pest or weed control at 500 g/ha (Myzus persicae; [1]) | pest or weed control at 500 g/ha (Myzus persicae; compounds of structure (II-b))
FC(F)(F)c1ccncc1-c1nc(C#Cc2ccccc2)c2ccccn12 [Example 8, 1-(phenylethynyl)-3-(4-trifluoromethylpyridin-3-yl)-imidazo[1,5-a]-pyridine] | ≥ 80% | ≥ 80% | 
FC(F)(F)c1cc(Cl)c2c(Cl)nc(-c3cnccc3C(F)(F)F)n2c1 [Example 38] | ≥ 80% | ≥ 80% | 
Cc1cc(CNC(=O)c2cnccc2C(F)(F)F)nc(C)n1 [II-38, N-(2,6-Dimethylpyrimidin-4-ylmethyl)-4-trifluoromethyl nicotinamide] |  | ≥ 80% | ≥ 90%
FC(F)(F)c1ccncc1-c1nc(-c2cccc(Cl)c2)c2ccccn12 [Example 7, 1-(3-chlorophenyl)-3-(4-trifluoromethylpyridin-3-yl)-imidazo[1,5-a]-pyridine] |  | ≥ 80% | 
CO/N=C/c1nc(-c2cnccc2C(F)(F)F)n2ccccc12 [Example 6, 1-methoximinomethyl-3-(4-trifluoromethylpyridin-3-yl)-imidazo[1,5-a]-pyridine] | ≥ 80% | ≥ 80% | 
FC(F)(F)c1ccncc1-c1nc(/C=C/c2ccccc2)c2ccccn12 [Example 127, 1-(phenylvinylidene)-3-(4-Trifluoromethylpyridin-3-yl)-imidazo[1,5-a]-pyridine] | ≥ 80% | ≥ 80% | 
FC(F)(F)c1ccncc1-c1ncc2ccccn12 [Example 1, 3-(4-trifluoromethylpyridin-3-yl)-imidazo[1,5-a]pyridine] | ≥ 80% | ≥ 80% | 
CSc1nc(-c2cnccc2C(F)(F)F)n2ccccc12 [Example 128] |  | ≥ 80% | 
Cc1cc(C)nc(CNC(=O)c2cnccc2C(F)(F)F)n1 [II-11, N-(4,6-Dimethylpyrimidin-2-ylmethyl)-4-trifluoromethyl-nicotinamide] |  |  | ≥ 90%
O=C(NCc1ncccn1)c1cnccc1C(F)(F)F [II-27, N-Pyrimidin-2-ylmethyl-4-trifluoromethyl-nicotinamide] |  |  | ≥ 90%
O=C(O)c1nc(-c2cnccc2C(F)(F)F)n2ccccc12 [Example 126, 3-(4-trifluoromethylpyridin-3-yl)-imidazo[1,5-a]pyridine-1-carboxylic acid] | ≥ 80% | ≥ 80% | 
O=Cc1nc(-c2cnccc2C(F)(F)F)n2ccccc12 [Example 5, 3-(4-trifluoromethylpyridin-3-yl)-imidazo[1,5-a]pyridine-1-carboxaldehyde] | ≥ 80% | ≥ 80% | 
FC(F)(F)c1ccncc1-c1nc(CN(Cc2ccccc2)Cc2ccccc2)c2ccccn12 [Example 124, 1-(dibenzylaminomethyl)-3-(4-trifluoromethylpyridin-3-yl)-imidazo[1,5-a]pyridine] | ≥ 80% | ≥ 80% | 
FC(F)(F)c1ccncc1-c1nc(Cl)c2ccccn12 [Example 4, 1-chloro-3-(4-trifluoromethylpyridin-3-yl)-imidazo[1,5-a]pyridine] | ≥ 80% | ≥ 80% | 
Cc1cnc(CNC(=O)c2cnccc2C(F)(F)F)cn1 [II-29] |  |  | ≥ 90%
FC(F)(F)c1ccncc1-c1nc(Br)c2ccccn12 [Example 3, 1-bromo-3-(4-trifluoromethylpyridin-3-yl)-imidazo[1,5-a]pyridine] |  | ≥ 80% | 
